How the values were obtained:
A172 GBM cells = assay: XTT cell viability assay on A172; type: cell-based, Human; conditions: for effect of IA, AN or B alone on A172 cell viability: 10 μM; for IC50: Homo sapiens, A 172, 48 h
Procedure: Cell cultures—Human glioblastoma A172 (ATCC®CRL-1620™) was cultured in DMEM (01-055-1A, Biological Industries, Israel) and U87MG (U87; ATCC®HTB-14™) in EMEM (01-058-1A; Biological Industries, Israel). Both media were supplemented with 10% fetal bovine serum (FBS, 04-127-1A, Biological Industries, Israel), 1% Pen-Strep, 1% L-Glutamine and 0.02% plasmocin (i.e., complete medium). Cells were incubated at 37° C. in a humidified atmosphere containing 5% CO2—95% air. Serum free media (SFM) was composed of DMEM/F12 (01-170-1A; Biological Industries, Israel), including all the supplements above except for FBS. Neurosphere media for A172 was composed of SFM with 2% B-27; Neurosphere media for U87 was serum-free EMEM without B27. For Glioblastoma stem cells (GSCs) cultures all human materials were used in accordance with the policies of the Henry Ford Hospital Institutional Review Board. Generation of GSCs from fresh GBM specimens and their characterization have been recently described. The GSCs were plated in neurosphere medium (DMEM-F12 1:1, glutamine 10 mM, HEPES buffer 10 mM and sodium bicarbonate 0.025%) supplemented with EGF and bFGF (20 ng/mL).
(§1) Cell viability assays—Cells were seeded in 96-well plates at density of 2×10^4 per well (100 μL/well) in SFM (for A172) or complete medium (for U87) and were incubated at 37° C. overnight to allow attachment. The following day, cells were treated with plant extracts (n=3), fractions, or cannabinoid standards in volume of 100 μL/well at different concentrations. Solvents used as a vehicle control and doxorubicin was used as a positive control in all the biological assays. Where indicated, CB1 or CB2 inverse agonists, TRPV1 or TRPV2 antagonists or TRPA1 blocker were added along with the indicated treatments at a concentration of 10 μM/mL in complete medium. Treated cells were incubated for 48 h at 37° C. Subsequently, XTT reagents (2,3-bis(2-methoxy-4-nitro-5-sulfophenyl)-5-[(phenylamine)-carbonyl]-2H-tetrazolium inner salt) (20-300-1000; Biological Industries, Israel) were added to the cells for 2 hours at 37° C. in a humidified 5% CO2—95% air atmosphere. Absorbance was recorded by a Synergy H1 hybrid reader photometer (BioTek) at 490 nm with 650 nm of reference wavelength. Cell viability was estimated from the equation: […]
(§2) For dose response assays, data points were connected by non-linear regression lines of the sigmoidal dose-response relation. GraphPad Prism version 6.1 (www(dot)graphpad(dot)com/scientific-software/prism/, GraphPad Software Inc., San Diego, USA) was employed to produce dose-response curves and determination of IC50 values.

[1] = tested on: ovarian cancer cell line HTB75; assay: XTT cell viability assay on HTB75; type: cell-based; conditions: for effect of IA, AN or B alone on HTB75 cell viability: 10 μM, 48 h
Procedure: FIGS. 17A-B show cell viability of HTB75 cells (FIG. 17A) following treatment with crude extract of cannabis strains DQ, Paris, GB-11, GB-14 and GB-18. Cell viability was determined by XTT assay as a function of live cell number. NT is the vehicle treated control (1% v/v methanol). Error bars indicate ±SE (n=3). […] (FIG. 17B) following treatment with C. sativa DQ crude extract at different concentrations for IC50 value calculation from 5P logistic curve fit using GraphPad Prism version 6.1. Error bars indicate ±SE (n=3).
FIGS. 18A-C show cell viability of HTB75 cells following treatment with DQ extract fractions F1-F8, and crude extract. FIG. 18A—Cell viability was determined by XTT assay as a function of live cell number. NT is the vehicle treated control (1% v/v methanol). Error bars indicate ±SE (n=3). […] (FIGS. 18B-C) Cell viability of HTB75 cells following treatment with C. sativa DQ fractions F5 and F7 at different concentrations for IC50 values calculation from 5P logistic curve fit using GraphPad Prism version 6.1. Error bars indicate ±SE (n=3).
as §1, §2

A172 cells = assay: Scratch-wound assay, A172 cell migration; type: cell-based, Human; conditions: 36 hours; F4 20, F4-SM 11.5, F5 20, F5-SM 11.5, Doxo 0.5 μg/mL
Procedure: Scratch-wound assay—A172 cells were seeded in a 96-well plate at a density of 2×10^4 per well in 100 μL of complete medium. Following 24 hours, cells in each well were scratched perpendicularly across the center of the well with a 200 μL pipette tip to produce a cell-free area for investigating the ability of the cells to migrate and close the gap under different treatments. Immediately following scratching, 100 μL of treatment solution was added. Photos were taken by a CARL ZEISS inverted microscope coupled with a camera at 0, 14, 20, and 36 hours following scratching, and the gap area was measured using ImageJ (version 1.53a). The scratch area, indicated by cells migrated into the scratch was calculated as percent of scratch area at time x from time 0: […]

HTB75 cells [2] = assay: Combined treatments with chemotherapy drugs on HTB75 viability, Bliss-independence model; type: cell-based; conditions: combination treatments
Description: FIGS. 23A-C are graphs showing synergistic interactions between fractions of some embodiments of the invention with (FIG. 23A) cisplatin, (FIG. 23B) gemcitabine and (FIG. 23C) niraparib on cell viability of HTB75 cells following combined treatments. Synergy of cytotoxic activity calculated based on Bliss-independence drug interaction model. Synergy is apparent when the experimental (observed) value of cell survival inhibition is higher than the calculated (expected) value. Values of delta of observed minus expected values, calculated based on Bliss model are shown in the Y axis.

[3] = given orally per mouse; reference [2]; cited from earlier work
HTB75 cells [4] = assay: Apoptosis/necrosis, annexin V-FITC and PI FACS, HTB75; type: cell-based; conditions: 48 h; niraparib 5.1, F5 19.1, F7 19.4, F5-SM 17.4, F7-SM 16.3 μg/mL; vehicle control 17.3%
Procedure: (§3) 10^4 cells were analyzed per treatment. Control is vehicle control (1.5% v/v methanol). The treated cells were harvested and analyzed in FACS following annexin V-FITC and PI staining. Error bars indicate ±SE (n=3).
Apoptosis assay—Apoptosis for the A172 cell line was assessed using MEBCYTO Apoptosis Kit with Annexin V-FITC and PI (MBL, Enco, 4700). Staining was carried out according to manufacturer's instructions. In brief, cells were seeded in a 6-well TC plate, at a density of 4×10^5 cells in 2 mL of SFM per well. 24 hours following seeding, cells were treated with the indicated treatments in complete medium for 48 hours. Following incubation, cells were harvested using trypsin and centrifuged for 5 minutes at 1600 rpm. Cell pellets were resuspended and washed twice with 1 mL of PBS. The cells in each sample were resuspended in 85 μL of Annexin binding buffer. Cells were stained using 10 μL of Annexin V-FITC solution and 5 μL of propidium iodide (PI) working solution followed by incubation in the dark at room temperature for 15 minutes. Then 400 μL of Annexin V binding buffer was added to each tube and flow cytometry was performed using a Gallios flow cytometer (FACS). Cells were considered apoptotic if they were Annexin V+/PI− (early apoptosis) or Annexin V+/PI+ (late apoptosis). Live cells were defined as Annexin V−/PI−, and Annexin V−/PI+ as necrosis.

MAPK4 gene = assay: Quantitative PCR of MAPK4 gene in HTB75 cell line; type: cell-based; conditions: 2 h, relative to control
Procedure: FIG. 24 is a graph showing quantitative PCR-based determination of the RNA steady state level in HTB75 cell line of MAPK4 gene, after treatment with niraparib, F5, F7 or combination of niraparib+F5 or niraparib+F7, for 2 h relative to control. Gene transcript values were determined by quantitative PCR as a ratio between the target gene versus a reference gene (Hypoxanthine Phosphoribosyltransferasel; HPRT1; geneID 3251). Values were calculated relative to the average expression of target genes in treated versus control using the 2ΔΔCt method. Control (methanol) treatment served as solvent (vehicle) control; Error bars indicate ±s.e.m. (n=3).

HTB75 cells [5] = assay: Cell cycle FACS, HTB75; type: cell-based; conditions: 24 h; F5-SM 17.4 μg/mL, niraparib 4 μg/mL; control 21.4%
Procedure: as §3
Cell cycle analysis—A172 cells were seeded in 6-well TC plate at a concentration of 4×10^5 cells in 2 mL of SFM per well. Following 24 hours incubation, cells were treated with indicated treatments in complete medium for 24 hours. Methanol and doxorubicin were used as negative and positive controls, respectively. Cells were harvested and centrifuged for 5 minutes at 1600 rpm. Cell pellets were washed once with 1 mL of PBS and fixed with 70% cold ethanol overnight at −20° C. The fixed cells were washed twice with 1 mL of PBS and stained with 250 μL of PI solution (50 μg/mL) containing RNase A (100 μg/mL) for 30 minutes in dark conditions. 250 μL PBS was added to each tube and the cells were analyzed using FACS.

Cc1c(C(=O)NN2CCCCC2)nn(-c2ccc(Cl)cc2Cl)c1-c1ccc(I)cc1 [AM251]
effect of IA, AN or B alone on A172 cell viability (A172 GBM cells; 48 hours): reduced A172 cell viability to a minor, non-significant extent | effect of IA, AN or B alone on HTB75 cell viability [1]: did not affect HTB75 cell viability

CCCCCc1cc(O)c(C/C=C(\C)CCC=C(C)C)c(O)c1 [CBG, cannabigerol]
IC50 (A172 GBM cells): 5 µg/mL | inhibition of cell migration in comparison to the vehicle control (A172 cells): 2.8%

Nc1ccn([C@@H]2O[C@H](CO)[C@@H](O)C2(F)F)c(=O)n1 [Gemcitabine]
synergy of gemcitabine with F5, F7, F5-SM, F7-SM (HTB75 cells [2]): no considerable synergy

CCCCCc1cc(O)c2c(c1)OC(C)(C)[C@@H]1CCC(C)=C[C@@H]21 [THC, Tetrahydrocannabinol]
IC50 (A172 GBM cells): 4.83 µg/mL | inhibition of cell migration in comparison to the vehicle control (A172 cells): 12.5% | effectiveness of phytocannabinoid combinations on HTB75 viability ([1]; fixed total concentration 13 and 15 μg/mL, ratios as in F5 or F7): less effective than various combinations of THC, CBC, CBG and CBN

Cn1nnc2c(C(N)=O)ncn2c1=O [TMZ, temozolomide]
effect on A172 viability / cell death (A172 GBM cells; up to 50 μg/mL, 48 hours): no effect

CC(C)c1ccc(NC(=O)Cn2cnc3c2c(=O)n(C)c(=O)n3C)cc1 [TRPA1 B, HC-030031]
effect of IA, AN or B alone on A172 cell viability (A172 GBM cells; 48 hours): reduced A172 cell viability to a minor, non-significant extent | effect of IA, AN or B alone on HTB75 cell viability [1]: did not affect HTB75 cell viability

COc1cccc(NC(=O)/C=C/c2ccc(Cl)cc2)c1 [TRPV1 AN, SB-366791]
effect of IA, AN or B alone on A172 cell viability (A172 GBM cells; 48 hours): reduced A172 cell viability to a minor, non-significant extent | effect of IA, AN or B alone on HTB75 cell viability [1]: did not affect HTB75 cell viability

CO [methanol]
LD50 [3]: ~7300 mg/kg

NC(=O)c1cccc2cn(-c3ccc([C@@H]4CCCNC4)cc3)nc12 [niraparib]
cell apoptosis (HTB75 cells [4]): 64.1% | MAPK4 expression (MAPK4 gene): reduced | percentage of cells in S phase (HTB75 cells [5]): 48.3%

SR144528 [CB2 IA]
effect of IA, AN or B alone on A172 cell viability (A172 GBM cells; 48 hours): reduced A172 cell viability to a minor, non-significant extent | effect of IA, AN or B alone on HTB75 cell viability [1]: did not affect HTB75 cell viability

Source: patent US20240165135A1, “COMPOSITIONS AND METHODS FOR THE TREATMENT OF CANCER” (The State of Israel, Ministry of Agriculture & Rural …, priority 2021, published 2024)
